Common to all, as to test: inhibition of tumour cell growth, NCI panel, 48 h
In assay [1] the test system is OVCAR-5 ovarian.
In assay [2] the test system is SK-MEL-28 melanoma.
Assay [3] relates to NCI-H226 lung.
Assay [4] has as its system A498 renal.
In assay [5] the test system is OVCAR-4 ovarian.
Assay [6] deals with HCC-2998 colon.
In assay [7] the test system is RPMI-8226 leukemia.
The test system of assay [8] is MCF7 breast.
Assay [9] relates to NCI-H23 lung.
Assay [10] relates to SF-268 CNS.
Assay [11] deals with ACHN renal.
For assay [12], the system named is 786-0 renal.
The test system of assay [13] is MALME-3M melanoma.
For assay [14], the system named is NCI/ADR-RES ovarian.
The subject of assay [15] is T-47D breast.
Assay [16] has as its system SW-620 colon.
Assay [17] relates to KM12 colon.
Assay [18] has as its system HT29 colon.

Molecules are shown by their SMILES.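 Results reflect a 48-hour exposure of cells in 96-well plates to compound at five concentrations. TGI: total growth inhibition.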 A value given as a limit tells only on which side of the number the result lay.

In the case of `CNC(=O)Nn1c(SC)nc2ccccc21`, the TGI in assay [1], in assay [2], in assay [3], in assay [4], in assay [5] and in assay [6] was > 100 µM in each case. Besides, the TGI in assay [7], in [8], in assay [9], in assay [10], in assay [11] and in [12] was > 100 µM each time. In addition, the TGI in [13], in assay [14], in [15], in assay [16], in assay [17] and in assay [18] was > 100 µM in each case.
`CC1(C)CCCCC1/C=C/C(CC(O)(C(F)(F)F)C(F)(F)F)=N\Nc1ccc([N+](=O)[O-])cc1[N+](=O)[O-]` (stereo unspecified): the TGI in assay [1] was 13.1 µM; in assay [2], 18.8 µM; in assay [3], 2.81 µM; in assay [4] it was 6.96 µM; in [5] it was 18.7 µM; in assay [6], > 100 µM. The TGI in assay [7] was 1.27 µM; in [8] it was 5.42 µM; in [9] it was 0.778 µM; in assay [10], 3 µM; in assay [11], 3.17 µM; in assay [12] it was 4.7 µM. Moreover, the TGI was 48.3 µM in [13]; > 100 µM in [14]; 2.99 µM in assay [15]; 11.4 µM in assay [16]; 9.75 µM in assay [17]; 11.3 µM in [18].
With `CC(=O)OC12c3ccccc3C(c3ccccc31)C1C(=O)N(Nc3ccccc3)C(=O)C12` (stereo unspecified), the TGI in assay [1], in [2], in assay [3], in assay [4], in [5] and in assay [6] was > 100 µM in each case. Also, the TGI in assay [7], in assay [8], in [9], in assay [10], in assay [11] and in assay [12] was > 100 µM each time. Moreover, the TGI in assay [13], in assay [14], in [15], in [16], in assay [17] and in assay [18] was > 100 µM each time.
Consider `CCCCCCCCOP(=O)(O)OP(=O)(O)OCC1OC(n2ccc(N)nc2=O)C(O)C1O` (stereo unspecified), for which the TGI in assay [1], in [2], in [3], in assay [4], in assay [5] and in [6] was > 100 µM each time. Besides, the TGI in assay [7], in assay [8], in assay [9], in assay [10], in assay [11] and in assay [12] was > 100 µM throughout. Moreover, the TGI in [13], in [14], in assay [15], in assay [16], in [17] and in [18] was > 100 µM each time.
`CO[C@@H]1C[C@H]2[C@@H]3CC[C@H]([C@@H](C)COC(C)=O)[C@@]3(C)CC[C@@H]2[C@@]2(C)CC[C@H]3C[C@]312`: the TGI in assay [1] was 23.6 µM; in [2], 31.9 µM; in assay [3], 34.9 µM; in [4], 35.6 µM; in assay [5] it was 44.8 µM; in [6], 28.6 µM. The TGI in assay [7] was 29.9 µM; in [8] it was 23.6 µM; in assay [9], 25.4 µM; in assay [10], 40.6 µM; in [11], 30.2 µM; in assay [12] it was 30.8 µM. Moreover, the TGI came to 29.4 µM in assay [13]; 30.4 µM in [14]; 31.1 µM in [15]; 27.3 µM in assay [16]; 23.2 µM in assay [17]; 19.9 µM in assay [18].
Regarding `Brc1ccc2[nH]cc([C@@H]3CN[C@@H](c4c[nH]c5ccc(Br)cc45)CN3)c2c1`, the TGI in [1] worked out at 20.6 µM; in assay [2], 27.8 µM; in assay [3] it was 31.3 µM; in [4], 28.7 µM; in assay [5], 17.7 µM; in assay [6] it was 11.6 µM. Also, the TGI in [7] amounted to 5.46 µM; in [8], 11.6 µM; in assay [9] it was 25.3 µM; in [10], 27.8 µM; in assay [11], 9.59 µM; in assay [12], 14.3 µM. Moreover, the TGI was 29.6 µM in assay [13]; 25.2 µM in assay [14]; 29.2 µM in assay [15]; 15.6 µM in assay [16]; 7.06 µM in assay [17]; 15.5 µM in assay [18].
For the molecule `CCN1CCC(O)(/C=C/c2cccc(C)c2)C(C(=O)/C=C/c2cccc(C)c2)C1` (stereo unspecified), the TGI in assay [1] was 6.98 µM; in [2], 4.49 µM; in [3], 5.89 µM; in assay [4] it was 4.52 µM; in [5] it was 13.6 µM; in assay [6], 2.96 µM. In addition, the TGI was 4.78 µM in assay [7]; 6.44 µM in [8]; 4.95 µM in assay [9]; 3.44 µM in assay [10]; 2.93 µM in assay [11]; 5.83 µM in [12]. For the same molecule, the TGI in [13] worked out at 3.53 µM; in assay [14], 5.99 µM; in [15], 8.38 µM; in [16], 7.38 µM; in [17], 3.27 µM; in [18], 3.18 µM.
Turning to `Cc1ccc(C2=NN=C3C(c4ccccc4)=Nc4ccccc4N3C2)cc1`, the TGI in assay [1] was 99.6 µM; in assay [2], > 100 µM; in [3], > 100 µM; in assay [4], > 100 µM; in [5], 21.8 µM; in assay [6], > 100 µM. Further, the TGI in assay [7] was > 73 µM; in [8], > 89.3 µM; in [9], > 100 µM; in assay [10], > 49.4 µM; in assay [11], > 100 µM; in assay [12], > 50.7 µM. Further, the TGI in [13] is 47.2 µM; in assay [14] it was > 100 µM; in assay [15] it was > 100 µM; in [16], > 100 µM; in assay [17], > 100 µM; in [18] it was > 81.1 µM.
As to `C/C(=N/NC(=S)Nc1ccccc1C)c1ccccn1`, the TGI in assay [1] was determined as 10.7 µM; in assay [2] it was 23.1 µM; in assay [3], 2.47 µM; in assay [4], 12.3 µM; in [5], 18.5 µM; in [6] it was 26 µM. Moreover, the TGI in assay [7] was > 55.8 µM; in assay [8], 12.8 µM; in [9], 27.2 µM; in assay [10] it was 30.9 µM; in assay [11], 10.3 µM; in [12] it was 18 µM. Moreover, the TGI was 15.9 µM in assay [13]; 8.62 µM in [14]; 3.49 µM in [15]; 29.2 µM in assay [16]; 17.4 µM in assay [17]; 31.8 µM in assay [18].
`Brc1ccc(N=C/C=C(\Nc2ccc(Br)cc2)C23CC4CC(CC(C4)C2)C3)cc1`: the TGI in [1] was > 67.8 µM; in assay [2], > 59.5 µM; in assay [3], > 100 µM; in assay [4], 79.7 µM; in assay [5] it was 31.3 µM; in assay [6] it was 35.8 µM. In addition, the TGI was > 100 µM in assay [7]; 28.4 µM in assay [8]; > 65.8 µM in assay [9]; 37.9 µM in [10]; 23.2 µM in [11]; 28.9 µM in [12]. The TGI in [13] is 42.8 µM; in [14] it was > 84.9 µM; in assay [15], 43.9 µM; in [16], 92.1 µM; in [17], 33.9 µM; in assay [18] it was > 61.6 µM.
Turning to `CC[C@H](C)[C@H](NC(=O)[C@H](Cc1ccc(O)cc1)NCC(F)(F)F)C(=O)OC(C)(C)C`, the TGI was found to be 18 µM in assay [1]; 19.1 µM in [2]; 18.8 µM in assay [3]; 14.8 µM in assay [4]; 13.3 µM in assay [5]; 15.8 µM in assay [6]. Moreover, the TGI was 23.5 µM in assay [7]; 19.4 µM in assay [8]; 20.5 µM in assay [9]; 24.6 µM in assay [10]; 13.9 µM in assay [11]; 16.1 µM in assay [12]. In addition, the TGI in assay [13] worked out at 22.1 µM; in assay [14], 50 µM; in [15], 18.3 µM; in [16] it was 23 µM; in assay [17], 18.7 µM; in assay [18], 16.3 µM.
As for `O=C1NC(=S)NC1C(Cc1ccccc1)c1ccco1` (stereo unspecified), the TGI in assay [1], in assay [2], in assay [3], in [4], in [5] and in assay [6] was > 100 µM each time. The TGI in [7], in [8], in [9], in assay [10], in assay [11] and in assay [12] was > 100 µM in each case. Also, the TGI in assay [13], in [14], in assay [15], in assay [16], in assay [17] and in assay [18] was > 100 µM in each case.

For the origin of these results see PubChem BioAssay (NCI).
